BindingDB's records for doi:10.1016/j.ejmech.2011.07.022 (Medical University of Warsaw, 2011)

Biological target: T1, 5-hydroxytryptamine receptor 1A (Rattus norvegicus, UniProt P19327)
T1 sequence (P19327 whole entry): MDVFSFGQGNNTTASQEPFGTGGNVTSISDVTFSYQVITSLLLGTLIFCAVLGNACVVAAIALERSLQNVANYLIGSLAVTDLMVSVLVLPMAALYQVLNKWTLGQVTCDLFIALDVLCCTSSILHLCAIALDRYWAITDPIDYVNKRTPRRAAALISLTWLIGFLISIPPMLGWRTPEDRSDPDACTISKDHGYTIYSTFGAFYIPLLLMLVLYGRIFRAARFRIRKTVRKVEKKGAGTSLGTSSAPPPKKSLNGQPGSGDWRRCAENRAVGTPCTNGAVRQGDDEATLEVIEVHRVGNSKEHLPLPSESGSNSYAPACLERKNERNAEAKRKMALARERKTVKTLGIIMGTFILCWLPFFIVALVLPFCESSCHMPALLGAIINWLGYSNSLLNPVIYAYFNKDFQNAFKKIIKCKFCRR
Assay: Displacement of [3H]8OH-DPAT from 5HT1A in rat brain cerebral cortex after 15 mins by scintillation counting

With `COc1ccc(Cl)cc1C(=O)NC1C[C@H]2CC[C@H](C1)N2Cc1ccco1` (stereo partly specified) the Ki was over 100 µM.
